Marks after values point to notes of the source that are not given here.
What was measured:
Assay type in all cases: in vivo
[1] = tested on: Puccinia recondite f. sp. tritici (the causal agent of wheat leaf rust); experiment: Test A: wheat leaf rust, preventive spray on wheat seedlings, visual disease rating; details: wheat leaf rust, preventive spray on wheat seedlings
In short: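 This was a preventive test: Puccinia recondite f. sp. tritici inoculum was applied one day after compound spray to run-off. Test suspensions were made in 50/50 acetone/water with 250 ppm surfactant, at 200 ppm (800 g/ha equivalent) or 40 ppm. Visual ratings of % disease control relative to controls were made after 24 h of saturated humidity and 7 growth-chamber days, all at 20° C.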

[2] = tested on: Blumeria graminis f. sp. tritici (also known as Erysiphe graminis f. sp. tritici, the causal agent of wheat powdery mildew); experiment: Test D: wheat powdery mildew, preventive spray on wheat seedlings, visual disease rating; details: wheat powdery mildew, preventive spray on wheat seedlings
In short: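 Preventive test: seedlings sprayed to run-off and inoculated with powdery mildew spores one day later. Suspensions were made in 50/50 acetone/water with 250 ppm Trem 014 surfactant (200 ppm equals 800 g/ha). Visual ratings after 8 days at 20 °C give percent disease control versus controls.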

[3] = tested on: Septoria tritici (the causal agent of wheat leaf blotch); experiment: Test B: wheat leaf blotch, preventive spray on wheat seedlings, visual disease rating; details: wheat leaf blotch, preventive spray on wheat seedlings
In short: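 Preventive test: Septoria tritici spores applied one day after run-off spraying of seedlings (200 ppm equals 800 g/ha; some tests 40 ppm). After 48 h at 24 °C saturated atmosphere and 19 days at 20 °C, disease scored visually as % control relative to untreated plants.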

[4] = tested on: Botrytis cinerea (the causal agent of tomato Botrytis); experiment: Test C: tomato Botrytis, preventive spray on tomato seedlings, visual disease rating; details: tomato Botrytis, preventive spray on tomato seedlings
In short: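 Preventive test: B. cinerea spore inoculation one day after tomato seedlings were sprayed to run-off with compound suspended in 50/50 acetone–water plus 250 ppm surfactant. Plants held 48 h at 20° C in saturated air, then 3 days at 24° C; visual ratings scored 100 (full control) to 0 versus controls; some entries used 40 ppm.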

[5] = no asterisk (standard test suspension concentration, not 40 ppm)
[6] = asterisk: 40 ppm test suspension

| Compound | Test A rating (100 = 100% disease control, 0 = no disease control relative to the controls) [1, 5] [%] | Test D rating (100 = 100% disease control, 0 = no disease control relative to the controls) [2, 5] [%] | Test B rating (100 = 100% disease control, 0 = no disease control relative to the controls) [3, 5] [%] | Test C rating (100 = 100% disease control, 0 = no disease control relative to the controls) [4, 5] [%] | Test A rating (100 = 100% disease control, 0 = no disease control relative to the controls) [1, 6] | Test D rating (100 = 100% disease control, 0 = no disease control relative to the controls) [2, 6] | Test B rating (100 = 100% disease control, 0 = no disease control relative to the controls) [3, 6] | Test C rating (100 = 100% disease control, 0 = no disease control relative to the controls) [4, 6] |
| --- | --- | --- | --- | --- | --- | --- | --- | --- |
| Cc1nc(Cl)c(C(O)c2ccc(Cl)cc2)n1-c1ccc(F)cc1Cl (stereo not shown) [compound 59] | 100 | 73 | 100 | 99 |  |  |  |  |
| Cc1nc(Br)c(C(O)c2ccc(Cl)cc2)n1-c1ccc(F)cc1Cl (stereo not shown) [compound 60] | 100 | 73 | 100 | 99 |  |  |  |  |
| OC(c1ccc(F)cc1F)c1c(Br)ncn1-c1ccc(F)cc1Cl (stereo not shown) [compound 63] | 96 | 0 | 59 | 98 |  |  |  |  |
| Cc1nc(Cl)c(C(O)c2ccc(F)cc2Cl)n1-c1c(F)cc(F)cc1Cl (stereo not shown) [compound 64] |  |  |  |  | 100* % | 93* % | 100* % | 99* % |
| OC(c1ccc(F)cc1F)c1c(Br)nc(Br)n1-c1ccc(F)cc1Cl (stereo not shown) [compound 65] |  |  |  |  | 100* % | 64* % | 100* % | 100* % |
| Cc1nc(Cl)c(C(O)c2ccc(Cl)cc2Cl)n1-c1c(F)cc(F)cc1Cl (stereo not shown) [compound 66] |  |  |  |  | 100* % | 69* % | 100* % | 99* % |
| Cc1nc(Cl)c(C(O)c2ccc(F)cc2Br)n1-c1c(F)cccc1Br (stereo not shown) [compound 68] | 100 | 96 | 100 | 100 |  |  |  |  |
| Cc1nc(Cl)c(C(O)c2ccc(F)cc2Br)n1-c1c(F)cc(F)cc1Br (stereo not shown) [compound 70] |  |  |  |  | 100* % | 43* % | 100* % | 99* % |
| OC(c1ccc(F)cc1Br)c1c(Cl)nc(C2CC2)n1-c1c(F)cccc1Br (stereo not shown) [compound 72] | 79 | 43 | 100 | 0 |  |  |  |  |
| Cc1ncc(C(O)c2ccc(F)cc2Cl)n1-c1c(F)cccc1Br (stereo not shown) [compound 73] | 100 | 0 | 100 | 99 |  |  |  |  |
| Cc1ncc(C(O)c2ccc(F)cc2Cl)n1-c1c(F)cc(F)cc1Br (stereo not shown) [compound 74] | 100 | 0 | 100 | 100 |  |  |  |  |
| OC(c1ccc(F)cc1Cl)c1cnc(C2CC2)n1-c1c(F)cccc1Br (stereo not shown) [compound 75] | 94 | 0 | 1 | 0 |  |  |  |  |
| Cc1nc(Cl)c(C(O)c2ccc(F)cc2Cl)n1-c1c(F)cc(Br)cc1F (stereo not shown) [compound 76] |  |  |  |  | 99* % | 0* % | 100* % | 0* % |
| Cc1cc(F)ccc1C(O)c1c(Cl)nc(Cl)n1-c1ccc(F)cc1F (stereo not shown) [compound 77] | 100 | 95 | 100 | 94 |  |  |  |  |
| Cc1cc(F)ccc1C(O)c1cnc(C)n1-c1c(F)cccc1F (stereo not shown) [compound 80] | 99 | 0 | 100 | 0 |  |  |  |  |
| Cc1nc(Cl)n(-c2c(F)cc(F)cc2F)c1C(O)c1ccc(F)cc1F (stereo not shown) [compound 83] |  |  |  |  | 100* % | 100* % | 100* % | 99* % |
| Cc1cc(F)ccc1C(O)c1c(Br)nc(C)n1-c1c(F)cccc1F (stereo not shown) [compound 88] | 99 | 90 | 100 | 96 |  |  |  |  |
| OC(c1c(F)cc(F)cc1F)c1c(Cl)nc(Cl)n1-c1ccc(Cl)cc1Cl (stereo not shown) [compound 90] | 100 | 99 | 100 | 98 |  |  |  |  |
| Cc1cc(F)ccc1C(O)c1c(Cl)nc(C)n1-c1c(F)cccc1F (stereo not shown) [compound 91] | 100 | 94 | 100 | 98 |  |  |  |  |
| Cc1nc(Cl)c(C(O)c2ccc(F)cc2F)n1-c1c(F)cc(F)cc1Br (stereo not shown) [compound 92] | 100 | 95 | 100 | 99 |  |  |  |  |
| Cc1ncc(C(O)c2ccc(F)cc2Br)n1-c1c(F)cc(F)cc1Br (stereo not shown) [compound 94] | 100 | 56 | 100 | 99 |  |  |  |  |
| OC(c1ccc(F)cc1Br)c1cnc(C2CC2)n1-c1c(F)cccc1Br (stereo not shown) [compound 95] | 0 | 0 | 0 | 0 |  |  |  |  |

— patent US20130143929A1, “FUNGICIDAL IMIDAZOLES” (EI DU PONT DE NEMOURS AND COMPANY, priority 2010, published 2013)
